Data published in patent publication US8664379B2, “Fused heterocyclic compounds as ion channel modulators” (Gilead Sciences, Inc., priority 2008, dated 2014).

Target: wild-type human cardiac sodium channel, hNav1.5 (late sodium current) (Homo sapiens, UniProt Q14524)
Assay: Late INa screening assay (PatchXpress whole cell patch clamp)
Format: cell-based
Conditions: HEK293 cells expressing hNav1.5, late INa generated with 10 μM Tefluthrin (some experiments 50 nM ATX II); for inhibition at 10 µM: HEK293, 10 μM test compound, read-out: Late INa % blk (10 μM test cmpd); for Late INa % blk (1 μM test cmpd): 1 μM test compound
Protocol: The late sodium current (Late INa) and peak sodium current (Peak INa) assays were performed on an automated electrophysiology platform, PatchXpress 7000A (MDS Analytical Technologies, Sunnyvale, Calif.), which uses the whole cell patch clamp technique to measure currents through the cell membrane of up to 16 cells at a time. The assay used an HEK293 (human embryonic kidney) cell line heterologously expressing the wild-type human cardiac sodium channel, hNav1.5, purchased from Millipore (Billerica, Mass.). No beta subunits were coexpressed with the Na channel alpha subunit. Cells were maintained with standard tissue culture procedures and stable channel expression was maintained with 400 μg/ml Geneticin in the culture medium. Cells isolated for use on PatchXpress were incubated for 5 minutes in Versene 1× and then for 2 minutes in 0.0125% Trypsin-EDTA (both at 37° C.) to ensure that 80-90% of the cells are single and not part of a cell cluster. Experiments were carried out at 24-27° C.
For both the Late INa and Peak INa assays, series resistance compensation was set to 50% and whole-cell compensation was performed automatically. Currents were low-pass filtered at 10 kHz and digitized at 31.25 kHz. Currents through open sodium channels were automatically recorded and stored in the DataXpress2 database (MDS Analytical Technologies, Sunnyvale, Calif.). Analysis was performed using DataXpress2 analysis software and data are compiled in Excel.
Compound stocks were routinely made in glass vials to 10 mM in dimethyl sulfoxide (DMSO). In some cases, when compounds were not soluble in DMSO, they were made in 100% ethanol. Stocks were sonicated as necessary. The extracellular solution for screening Late INa was composed of: 140 mM NaCl, 4 mM KCl, 1.8 mM CaCl2, 0.75 mM MgCl2, and 5 mM HEPES with pH adjusted to 7.4 using NaOH. The extracellular solution for screening Peak INa was composed of: 20 mM NaCl, 120 mM N-methyl-D glucamine, 4 mM KCl, 1.8 mM CaCl2, 0.75 mM MgCl2, and 5 mM HEPES with pH adjusted to 7.4 using HCl. The intracellular solution used to perfuse the inside of the cells for both the Late INa and Peak INa assays contains: 120 mM CsF, 20 mM CsCl, 5 mM EGTA, 5 mM HEPES and pH adjusted to 7.4 with CsOH. Compounds were diluted in extracellular solution to 10 μM in glass vials and then transferred to glass well plates before robotic addition to the cells. The 0Na extracellular solution used at the end of each experiment for the Late INa and Peak INa assays to measure baseline current contained: 140 mM N-methyl-D-glucamine; 4 mM KCl; 1.8 mM CaCl2; 0.75 mM MgCl2; 5 mM HEPES and pH was adjusted to 7.4 with HCl.
For the Late INa assay, sodium channels were activated every 10 seconds (0.1 Hz) by depolarizing the cell membrane to −20 mV for 250 milliseconds (ms) from a holding potential of −120 mV. In response to a −20 mV voltage step, typical Nav1.5 sodium currents activated rapidly to a peak negative current and then inactivated nearly completely within 3-4 ms.
All compounds were tested to determine their activity in blocking the late sodium current. Late INa current is generated by adding 10 μM Tefluthrin (pyrethroid) to the extracellular solution while recording Na currents. For some experiments, 50 nM ATX II (sea anemone toxin), another late INa activator, was used to generate the late component. Both activators generate late components that are large enough that block of the late component by compounds can be measured easily. For the purposes of the screening, late INa is defined as the mean current between 225 ms and 250 ms after stepping to −20 mV to activate Na channels. After establishing the whole cell recording configuration, late INa activators were added to each well 4 times over a 16-17 minute period so that the late component of the Na current reached a stable value. Compounds were then added (typically at 10 μM), in the presence of late INa activator, with 3 additions over the course of 7 or 8 minutes. […]

Chain of wild-type human cardiac sodium channel, hNav1.5 (late sodium current) (Q14524 whole entry): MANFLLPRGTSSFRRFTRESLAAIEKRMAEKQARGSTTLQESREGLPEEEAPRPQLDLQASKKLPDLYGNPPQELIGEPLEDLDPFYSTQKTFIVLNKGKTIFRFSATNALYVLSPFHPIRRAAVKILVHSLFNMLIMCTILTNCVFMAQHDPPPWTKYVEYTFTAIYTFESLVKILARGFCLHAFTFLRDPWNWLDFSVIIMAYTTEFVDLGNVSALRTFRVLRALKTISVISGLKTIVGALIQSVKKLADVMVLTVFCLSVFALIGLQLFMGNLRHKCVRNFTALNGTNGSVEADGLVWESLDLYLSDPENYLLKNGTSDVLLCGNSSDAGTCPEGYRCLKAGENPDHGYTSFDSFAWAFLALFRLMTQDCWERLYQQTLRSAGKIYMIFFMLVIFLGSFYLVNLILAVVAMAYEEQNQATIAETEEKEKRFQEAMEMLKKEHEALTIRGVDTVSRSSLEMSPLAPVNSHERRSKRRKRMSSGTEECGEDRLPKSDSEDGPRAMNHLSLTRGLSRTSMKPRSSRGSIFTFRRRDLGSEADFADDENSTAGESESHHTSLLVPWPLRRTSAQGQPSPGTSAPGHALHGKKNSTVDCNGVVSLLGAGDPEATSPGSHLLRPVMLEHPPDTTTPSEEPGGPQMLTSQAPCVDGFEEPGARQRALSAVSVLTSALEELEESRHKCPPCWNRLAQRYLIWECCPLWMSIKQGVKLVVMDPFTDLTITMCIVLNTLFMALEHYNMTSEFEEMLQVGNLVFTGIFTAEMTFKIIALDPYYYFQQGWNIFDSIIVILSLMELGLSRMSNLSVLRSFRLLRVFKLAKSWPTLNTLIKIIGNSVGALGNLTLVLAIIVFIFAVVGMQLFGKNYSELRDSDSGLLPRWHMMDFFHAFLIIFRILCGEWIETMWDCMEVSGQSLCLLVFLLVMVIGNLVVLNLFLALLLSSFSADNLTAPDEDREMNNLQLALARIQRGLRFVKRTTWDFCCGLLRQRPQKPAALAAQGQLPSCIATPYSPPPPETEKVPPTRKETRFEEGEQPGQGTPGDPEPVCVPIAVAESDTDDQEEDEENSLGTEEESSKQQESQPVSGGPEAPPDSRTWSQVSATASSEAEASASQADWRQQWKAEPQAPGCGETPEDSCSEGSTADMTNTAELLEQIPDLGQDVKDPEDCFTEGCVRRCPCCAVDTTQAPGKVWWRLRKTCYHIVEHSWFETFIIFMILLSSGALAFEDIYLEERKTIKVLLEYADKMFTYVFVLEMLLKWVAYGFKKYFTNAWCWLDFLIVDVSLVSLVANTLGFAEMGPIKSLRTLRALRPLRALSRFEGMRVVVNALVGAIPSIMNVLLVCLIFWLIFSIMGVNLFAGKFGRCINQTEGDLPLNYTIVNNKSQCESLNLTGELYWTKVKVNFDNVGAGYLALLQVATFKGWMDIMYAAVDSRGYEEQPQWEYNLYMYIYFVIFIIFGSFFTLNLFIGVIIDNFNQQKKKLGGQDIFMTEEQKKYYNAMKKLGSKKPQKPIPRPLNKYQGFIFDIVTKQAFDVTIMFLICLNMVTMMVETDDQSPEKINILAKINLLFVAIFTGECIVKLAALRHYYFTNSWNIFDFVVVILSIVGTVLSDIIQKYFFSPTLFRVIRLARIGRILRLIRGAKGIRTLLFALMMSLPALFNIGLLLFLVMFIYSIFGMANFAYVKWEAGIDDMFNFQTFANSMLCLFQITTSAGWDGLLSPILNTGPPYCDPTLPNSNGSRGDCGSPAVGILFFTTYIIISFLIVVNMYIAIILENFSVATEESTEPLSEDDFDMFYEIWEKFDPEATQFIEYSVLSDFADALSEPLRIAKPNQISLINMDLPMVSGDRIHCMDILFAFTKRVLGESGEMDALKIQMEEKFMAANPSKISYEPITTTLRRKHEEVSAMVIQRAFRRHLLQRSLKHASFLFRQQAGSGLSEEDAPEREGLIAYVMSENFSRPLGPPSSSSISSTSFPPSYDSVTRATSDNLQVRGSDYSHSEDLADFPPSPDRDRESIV

| Compound | inhibition at 10 µM [%] | Late INa % blk (1 μM test cmpd) [%] |
| --- | --- | --- |
| O=C1CCc2cc(-c3ccccc3F)ccc2N1 [Compound 7, 6-(2-fluorophenyl)-3,4-dihydroquinolin-2(1H)-one] | 52 | – |
| CCOC(=O)CN1C(=O)CCc2cc(-c3ccc(F)cc3F)ccc21 [Compound 22, ethyl [6-(2,4-difluorophenyl)-2-oxo-3,4-dihydroquinolin-1(2H)-yl]acetate] | 67 | – |
| NC(=O)CN1C(=O)CCc2cc(-c3ccc(OC(F)(F)F)cc3)ccc21 [Compound 31, 2-{2-oxo-6-[4-(trifluoromethoxy)phenyl]-3,4-dihydroquinolin-1(2H)-yl}acetamide] | 26 | – |
| O=C1CCc2cc(-c3ccc(F)cc3F)ccc2N1CC(F)(F)F [Compound 28, 6-(2,4-difluorophenyl)-1-(2,2,2-trifluoroethyl)-3,4-dihydroquinolin-2(1H)-one] | 18 | – |
| CC(=O)c1cccc(-c2ccc3c(c2)CCC(=O)N3)c1 [Compound 8, 6-(3-acetylphenyl)-3,4-dihydroquinolin-2(1H)-one] | 22 | – |
| O=C1CCc2cc(-c3ccc(OC(F)(F)F)cc3)ccc2N1Cc1cccnc1 [Compound 37, 1-(pyridin-3-ylmethyl)-6-[4-(trifluoromethoxy)phenyl]-3,4-dihydroquinolin-2(1H)-one] | 19 | – |
| O=C(O)c1ccc(CN2C(=O)CCc3cc(-c4ccc(C(F)(F)F)cc4)ccc32)cc1 [Compound 86, 4-((2-oxo-6-(4-(trifluoromethyl)phenyl)-3,4-dihydroquinolin-1(2H)-yl)methyl)benzoic acid] | 13 | – |
| N#Cc1ccc(-c2ccc3c(c2)CCC(=O)N3)cc1 [Compound 5, 4-(2-oxo-1,2,3,4-tetrahydroquinolin-6-yl)benzonitrile] | 30 | – |
| O=C1CCc2cc(-c3ccc(F)cc3)ccc2N1 [Compound 3, 6-(4-fluorophenyl)-3,4-dihydroquinolin-2(1H)-one] | 29 | – |
| CC(C)(C)OC(=O)CN1C(=O)CCc2cc(-c3ccc(Cl)cc3)ccc21 [Compound 40, tert-butyl [6-(4-chlorophenyl)-2-oxo-3,4-dihydroquinolin-1(2H)-yl]acetate] | 64 | – |
| CC(C)(C)OC(=O)CN1C(=O)CCc2cc(-c3ccc(F)cc3F)ccc21 [Compound 30, tert-butyl [6-(2,4-difluorophenyl)-2-oxo-3,4-dihydroquinolin-1(2H)-yl]acetate] | 86 | 47.9 |
| COC(=O)c1ccc(CN2C(=O)CCc3cc(-c4ccc(C(F)(F)F)cc4)ccc32)cc1 [Compound 87, methyl 4-((2-oxo-6-(4-(trifluoromethyl)phenyl)-3,4-dihydroquinolin-1(2H)-yl)methyl)benzoate] | 20 | – |
| N#CCN1C(=O)CCc2cc(-c3ccc(C(F)(F)F)cc3)ccc21 [Compound 90, 2-(2-oxo-6-(4-(trifluoromethyl)phenyl)-3,4-dihydroquinolin-1(2H)-yl)acetonitrile] | 22 | – |
| O=C(O)CN1C(=O)CCc2cc(-c3ccc(Cl)cc3)ccc21 [Compound 68, [6-(4-chlorophenyl)-2-oxo-3,4-dihydroquinolin-1(2H)-yl]acetic acid] | 23 | – |
| CC(C)(C)OC(=O)CN1C(=O)CCc2cc(-c3ccc(Cl)c(C(F)(F)F)c3)ccc21 [Compound 67, tert-butyl {6-[4-chloro-3-(trifluoromethyl)phenyl]-2-oxo-3,4-dihydroquinolin-1(2H)-yl}acetate] | 74 | – |
| O=C(O)CN1C(=O)CCc2cc(-c3ccc(OC(F)(F)F)cc3)ccc21 [Compound 51, {2-oxo-6-[4-(trifluoromethoxy)phenyl]-3,4-dihydroquinolin-1(2H)-yl}acetic acid] | 14 | – |

| Compound | inhibition at 10 µM [%] | Late INa % blk (1 μM test cmpd) [%] |
| --- | --- | --- |
| COc1ccccc1OCC(O)CN1C(=O)CCc2cc(-c3ccc(F)cc3F)ccc21 (stereo not shown) [Compound 88, 6-(2,4-difluorophenyl)-1-(2-hydroxy-3-(2-methoxyphenoxy)propyl)-3,4-dihydroquinolin-2(1H)-one] | 40 | – |
| COc1cc2c(cc1-c1ccc(Cl)cc1)CCC(=O)N2 [Compound 77, 6-(4-chlorophenyl)-7-methoxy-3,4-dihydroquinolin-2(1H)-one] | 72 | – |
| CCOC(=O)c1cccc(CN2C(=O)CCc3cc(-c4ccc(C(F)(F)F)cc4)ccc32)c1 [Compound 91, ethyl 3-((2-oxo-6-(4-(trifluoromethyl)phenyl)-3,4-dihydroquinolin-1(2H)-yl)methyl)benzoate] | 31 | – |
| CC(C)(C)OC(=O)CN1C(=O)CCc2cc(-c3ccc(F)cc3)ccc21 [Compound 33, tert-butyl [6-(4-fluorophenyl)-2-oxo-3,4-dihydroquinolin-1(2H)-yl]acetate] | 77 | 38.1 |
| NC(=O)CN1C(=O)CCc2cc(-c3ccc(C(F)(F)F)cc3)ccc21 [Compound 56, 2-{2-oxo-6-[4-(trifluoromethyl)phenyl]-3,4-dihydroquinolin-1(2H)-yl}acetamide] | 14 | – |
| O=C1CCc2cc(-c3ccc(F)cc3F)ccc2N1CCO [Compound 16, 6-(2,4-difluorophenyl)-1-(2-hydroxyethyl)-3,4-dihydroquinolin-2(1H)-one] | 24 | – |
| CC(C)(C)OC(=O)CN1C(=O)CCc2cc(-c3ccc(OC(F)(F)F)cc3)ccc21 [Compound 50, tert-butyl {2-oxo-6-[4-(trifluoromethoxy)phenyl]-3,4-dihydroquinolin-1(2H)-yl}acetate] | 76 | – |
| COc1cc2c(cc1-c1ccc(C(F)(F)F)c(F)c1)CCC(=O)N2 [Compound 82, 6-(3-fluoro-4-(trifluoromethyl)phenyl)-7-methoxy-3,4-dihydroquinolin-2(1H)-one] | 54 | – |
| CC1(C)CC(=O)Nc2ccc(-c3ccc(C(F)(F)F)cc3)cc21 [Compound 42, 4,4-dimethyl-6-[4-(trifluoromethyl)phenyl]-3,4-dihydroquinolin-2(1H)-one] | 19 | – |
| CC(C)(C)OC(=O)CN1C(=O)CCc2cc(-c3ccc(Oc4ccccc4)cc3)ccc21 [Compound 66, tert-butyl [2-oxo-6-(4-phenoxyphenyl)-3,4-dihydroquinolin-1(2H)-yl]acetate] | 27 | – |
| COc1cc2c(cc1-c1ccc(C(F)(F)F)cc1)CCC(=O)N2CC(=O)O [Compound 79, 2-(7-methoxy-2-oxo-6-(4-(trifluoromethyl)phenyl)-3,4-dihydroquinolin-1(2H)-yl)acetic acid] | 12 | – |
| O=C(O)CN1C(=O)CCc2cc(-c3ccc(C(F)(F)F)c(F)c3)ccc21 [Compound 74, 2-(6-(3-fluoro-4-(trifluoromethyl)phenyl)-2-oxo-3,4-dihydroquinolin-1(2H)-yl)acetic acid] | 20 | – |
| O=C1CCc2cc(-c3ccc(C(F)(F)F)c(F)c3)ccc2N1 [Compound 19, 6-(3-fluoro-4-(trifluoromethyl)phenyl)-3,4-dihydroquinolin-2(1H)-one] | 31 | – |
| CCOC(=O)CN1C(=O)CCc2cc(-c3cccc(OC(F)(F)F)c3)ccc21 [Compound 24, ethyl {2-oxo-6-[3-(trifluoromethoxy)phenyl]-3,4-dihydroquinolin-1(2H)-yl}acetate] | 74 | 44 |
| O=C1CCc2cc(-c3ccc(C(F)(F)F)cc3)ccc2N1 [Compound 9, 6-[4-(trifluoromethyl)phenyl]-3,4-dihydroquinolin-2(1H)-one] | 62 | – |
